Measurements from US20040038856A1, “Treatment of fibroproliferative disorders using TGF-beta inhibitors” (priority 2002, published 2004).

Test system: bleomycin rat model of pulmonary fibrosis
Experiment: Bleomycin rat model of pulmonary fibrosis, day 14, dexamethasone and/or test compound
Assay type: in vivo
Details: Dex 2.0 mg/kg every other day, test compound 40 mg/kg twice a day
Protocol: Rats were intubated with saline or 1 unit of bleomycin. After twenty four hours, rats were weighed and dosed with saline or 2.0 mg/kg of dexamethasone every other day and 1% methyl cellulose (MC) or 40 mg/kg of a test compound twice a day. On day 14, 1-3 hours after dosing, rat were sacrificed and lungs were inflated and collected for analysis.
The primary end points of the analysis were the total hydroxyproline concentration per lung and lung capacity. The secondary end point was the body weight.
The statistical analysis was done using one-way ANOVA with Bonferroni's Multiple Comparison Test.

In the case of `C[C@@H]1C[C@H]2[C@@H]3CCC4=CC(=O)C=C[C@]4(C)[C@@]3(F)[C@@H](O)C[C@]2(C)[C@@]1(O)C(=O)CO` [dexamethasone], the “bleomycin-induced body weight loss” value is reported as “no effect”.
